Source: patent EP4810040A2, “INHIBITORS OF APOL1 AND METHODS OF USING SAME” (priority 2020, dated 2022)

Target: T1, APOL1 G1 (Homo sapiens, UniProt O14791, I384M/S342G)
T1 sequence (O14791 28-398 S342G/I384M): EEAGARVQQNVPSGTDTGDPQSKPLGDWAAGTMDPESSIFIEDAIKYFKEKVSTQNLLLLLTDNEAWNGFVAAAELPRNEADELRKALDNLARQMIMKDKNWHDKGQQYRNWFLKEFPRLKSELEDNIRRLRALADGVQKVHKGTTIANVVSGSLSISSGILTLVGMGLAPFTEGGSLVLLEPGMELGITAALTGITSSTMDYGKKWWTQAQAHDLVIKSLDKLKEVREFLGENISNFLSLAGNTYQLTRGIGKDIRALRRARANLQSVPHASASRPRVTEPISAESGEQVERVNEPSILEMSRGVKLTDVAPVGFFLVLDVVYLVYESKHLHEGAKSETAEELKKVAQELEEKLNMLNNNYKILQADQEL
Assay: MultiTox-Fluor Multiplex Cytotoxicity Assay, tet-inducible APOL1 G1 T-REx-HEK293 cells
Format: cell-based
Set-up: expressed in transfected cells; host or cells: T-REx HEK293, clone G1 DC3.25 (pAAVS1-Puro-APOL1 G1)
Conditions: for IC90: HEK293, Multi-Tox Assay, APOL1 variant (G0/G1/G2) of the HEK293 cells not given, read-out: Multi-Tox Assay IC90; for Emax / Multi-Tox Assay Max Activity (%): Multi-Tox Assay, APOL1 variant not given; for Emax: read-out: Multi-Tox Assay Max Activity (%)
Procedure: The MultiTox-Fluor Multiplex Cytotoxicity Assay is a single-reagent-addition, homogeneous, fluorescence assay that measures the number of live and dead cells simultaneously in culture wells. The assay measures cell viability and cytotoxicity by detecting two distinct protease activities. The live-cell protease activity is restricted to intact viable cells and is measured using a fluorogenic, cell-permeant peptide glycyl-phenylalanylamino fluorocoumarin (GF-AFC) substrate. The substrate enters intact cells, where it is cleaved to generate a fluorescent signal proportional to the number of living cells. […] A second, cell-impermeant, fluorogenic peptide substrate (bis-AAF-R110 Substrate) is used to measure dead-cell protease that has been released from cells that have lost membrane integrity. A ratio of dead to live cells is used to normalize data.
Briefly, the tet-inducible transgenic APOL1 T-REx-HEK293 cell lines were incubated with 50 ng/mL tet to induce APOL1 in the presence of 3-(2-(4-fluorophenyl)-1H-indol-3-yl)-N-((3S,4R)-4-hydroxy-2-oxopyrrolidin-3-yl)propenamide at […], 0.0045, 0.0015, 0.0005 µM in duplicate for 24 hours in a humidified 37°C incubator. The MultiTox reagent was added to each well and placed back in the incubator for an additional 30 minutes. The plate was read on the EnVision plate reader. A ratio of dead to live cells was used to normalize, and data was imported, analyzed and fit using Genedata Screener (Basel, Switzerland) software. Data was normalized using percent of control, no tet (100% viability), and 50 ng/mL tet treated (0% viability),and fit using Smart Fit. The reagents, methods, and complete protocol for the MultiTox assay are described below. Table 42. Reagents Used in the Multi-Tox Assay
Human embryonic kidney (HEK293) cell lines containing a tet-inducible expression system (T-REx™; Invitrogen, Carlsbad, CA) and Adeno-associated virus site 1 pAA VS1-Puro-APOL1 G0 or pAAVS1-Puro-APOL1 G1 or pAAVS1-Puro-APOL1 G2 Clones G0 DC2.13, G1 DC3.25, and G2 DC4.44 were grown in a T-225 flask at ~90% confluency in cell growth media (DMEM, 10% Tet-free FBS, 2 mM L-glutamine, 100 Units/mL penicillin-streptomycin, 5 µg/mL blasticidin S HCl, 1 µg/mL puromycin dihydrochloride). Cells were washed with DPBS and then trypsinized to dissociate from the flask. Media was used to quench the trypsin, cells were then pelleted at 200g and resuspended in fresh cell assay media (DMEM, 2% Tet-free FBS, 2 mM L-glutamine, 100 Units/mL penicillin-streptomycin). Cells were counted and diluted to 1.17 x 10^6 cells/mL. 20 µL of cells (23,400/well) were dispensed to every well of a 384-well Poly-D-Lysine coated plate using the Multidrop dispenser. The plates were then incubated at room temperature for one hour.
Tetracycline is needed to induce APOL1 expression. 1 mg/mL tet stock in water was diluted to 250 ng/mL (5X) in cell assay media. 60 µL of cell assay media (no tet control) was dispensed in columns 1 and 24, and 60 µL of 5X tet was dispensed in 384-PP-round bottom plate in columns 2 to 23 with the Multidrop dispenser.
Assay ready plates from the Global Compound Archive were ordered using template 384_APOL1Cell_DR10n2_50uM_v3. Compounds were dispensed at 200 nL in DMSO. The final top concentration was 10 µM with a 10 point 3-fold dilution in duplicate in the MultiTox assay.
20 µL were transferred from the 5X tet plate to the ARP and mixed, then 5 µL of 5X tet and the compounds were transferred to the cell plate and mixed using the Bravo. The cell plate was placed in the humidified 37°C 5% CO2 incubator for 24 hours.
The MultiTox-Fluor Multiplex Cytotoxicity Assay was performed in accordance with the manufacturer's protocol. […]

Row | SMILES | IC90 | Emax | Multi-Tox Assay Max Activity (%)
1 | COc1ccc(C2CC3(CC(C)N2)OCCc2cc(Cl)sc23)nn1 (mixture of isomers) [Compound 76] | < 50 nM | 99.3% | 
2 | COc1cccc(C2CC3(CC(C)N2)OCCc2cc(Cl)sc23)n1 (mixture of isomers) [Compound 135] | 50 to 500 nM |  | 98.0%
3 | CC1CC2(CC(C)N1)OCCc1cc(Cl)sc12 (mixture of isomers) [Compound 194, 2-chloro-2',6'-dimethyl-spiro[4,5-dihydrothieno[2,3-c]pyran-7,4'-piperidine]] | 50 to 500 nM | 98.7% | 
4 | CC1CC2(CC(CO)N1)OCCc1cc(Cl)sc12 (mixture of isomers) [Compound 210, (2-chloro-6'-methyl-spiro[4,5-dihydrothieno[2,3-c]pyran-7,4'-piperidine]-2'-yl)methanol] | > 500 nM | 92.2% | 
5 | CC1CC2(CC(C(C)C)N1)OCCc1cc(Cl)sc12 (mixture of isomers) [Compound 214] | 50 to 500 nM | 99.3% | 
6 | CCC1CC2(CC(C)N1)OCCc1cc(Cl)sc12 (mixture of isomers) [Compound 215] | 50 to 500 nM | 99.3% | 
7 | CC1CC2(CC(C3CCOCC3)N1)OCCc1cc(Cl)sc12 (mixture of isomers) [Compound 216] | > 500 nM | 97.7% | 
8 | CC1CC2(CC(C3CC3)N1)OCCc1cc(Cl)sc12 (mixture of isomers) [Compound 217] | < 50 nM | 99.2% | 
9 | CC1CC2(CC(C3CCC3)N1)OCCc1cc(Cl)sc12 (mixture of isomers) [Compound 218] | 50 to 500 nM | 99.3% | 
10 | CC1CC2(CC(c3cccnc3)N1)OCCc1cc(Cl)sc12 (racemic) [Compound 20, 2-chloro-2'-methyl-6'-(3-pyridyl)spiro[4,5-dihydrothieno[2,3-c]pyran-7, 4'-piperidine]] | < 50 nM | 99.4% | 
11 | Cc1cc([C@@H]2C[C@]3(C[C@H](C)N2)OCCc2cc(Cl)sc23)ccn1 (racemic) [Compound 21, (2S)-2-chloro-2'-methyl-6'-(2-methyl-4-pyridyl)spiro[4,5-dihydrothieno[2,3-c]pyran-7,4'-piperidine]] | < 50 nM | 99.7% | 
12 | Cc1noc2cc([C@@H]3C[C@]4(C[C@H](C)N3)OCCc3cc(Cl)sc34)ccc12 (racemic) [Compound 25] | < 50 nM |  | 100.0%
13 | C[C@H]1C[C@@]2(C[C@@H](c3cnc4c(cnn4C)c3)N1)OCCc1cc(Cl)sc12 (racemic) [Compound 26] | < 50 nM |  | 100.0%
14 | COc1ccc([C@@H]2C[C@]3(C[C@H](C)N2)OCCc2cc(Cl)sc23)c(F)c1 (racemic) [Compound 44] | < 50 nM |  | 99.5%
15 | C[C@H]1C[C@@]2(C[C@@H](c3ccc(C(N)=O)cc3)N1)OCCc1cc(Cl)sc12 (racemic) [Compound 47] | < 50 nM | 99.3% | 
16 | Cc1n[nH]c2ncc([C@@H]3C[C@]4(C[C@H](C)N3)OCCc3cc(Cl)sc34)cc12 (racemic) [Compound 48] | < 50 nM |  | 
17 | COc1ccc([C@@H]2C[C@]3(C[C@H](C)N2)OCCc2cc(Cl)sc23)cn1 (racemic) [Compound 49] | < 50 nM | 99.7% | 
18 | CC(=O)Nc1ccc([C@@H]2C[C@]3(C[C@H](C)N2)OCCc2cc(Cl)sc23)cc1 (racemic) [Compound 50] | < 50 nM |  | 99.7%

Row | SMILES | IC90 | Emax | Multi-Tox Assay Max Activity (%)
19 | C[C@H]1C[C@@]2(C[C@@H](c3cnc(C4CC4)nc3)N1)OCCc1cc(Cl)sc12 (racemic) [Compound 52] | < 50 nM |  | 99.7%
20 | C[C@H]1C[C@@]2(C[C@@H](c3cccc(C#N)n3)N1)OCCc1cc(Cl)sc12 (racemic) [Compound 53] | < 50 nM |  | 99.3%
21 | Cc1ccc([C@@H]2C[C@]3(C[C@H](C)N2)OCCc2cc(Cl)sc23)cn1 (racemic) [Compound 55] | < 50 nM |  | 99.7%
22 | C[C@H]1C[C@@]2(C[C@@H](c3cnn(CCO)c3)N1)OCCc1cc(Cl)sc12 (racemic) [Compound 56] | < 50 nM |  | 99.8%
23 | C[C@H]1C[C@@]2(C[C@@H](c3cnc(N)nc3)N1)OCCc1cc(Cl)sc12 (racemic) [Compound 57] | < 50 nM |  | 99.7%
24 | Cc1ccc([C@@H]2C[C@]3(C[C@H](C)N2)OCCc2cc(Cl)sc23)nn1 (racemic) [Compound 58] | < 50 nM |  | 99.7%
25 | C[C@H]1C[C@@]2(C[C@@H](c3ccc(O)cn3)N1)OCCc1cc(Cl)sc12 (racemic) [Compound 59] | < 50 nM |  | 99.3%
26 | CNc1ncc([C@@H]2C[C@]3(C[C@H](C)N2)OCCc2cc(Cl)sc23)cn1 (racemic) [Compound 60] | < 50 nM |  | 99.7%
27 | COc1ccc([C@@H]2C[C@]3(C[C@H](C)N2)OCCc2cc(Cl)sc23)cc1C#N (racemic) [Compound 62] | < 50 nM | 99.3% | 
28 | C[C@H]1C[C@@]2(C[C@@H](c3cnc(C(N)=O)cn3)N1)OCCc1cc(Cl)sc12 (racemic) [Compound 63] | < 50 nM | 99.8% | 
29 | Cc1cncc([C@@H]2C[C@]3(C[C@H](C)N2)OCCc2cc(Cl)sc23)c1 (racemic) [Compound 64] | < 50 nM | 100% | 
30 | C[C@H]1C[C@@]2(C[C@@H](c3cnn(-c4ccccc4)c3)N1)OCCc1cc(Cl)sc12 (racemic) [Compound 65] | < 50 nM | 99.5% | 
31 | Cc1cc([C@@H]2C[C@]3(C[C@H](C)N2)OCCc2cc(Cl)sc23)on1 (racemic) [Compound 66] | < 50 nM | 99.8% | 
32 | C[C@H]1C[C@@]2(C[C@@H](c3ccc4cn[nH]c4c3)N1)OCCc1cc(Cl)sc12 (racemic) [Compound 67] | < 50 nM | 99.7% | 
33 | C[C@H]1C[C@@]2(C[C@@H](c3ccc(O)nc3)N1)OCCc1cc(Cl)sc12 (racemic) [Compound 68] | < 50 nM | 99.7% | 
34 | CCOc1ccc([C@@H]2C[C@]3(C[C@H](C)N2)OCCc2cc(Cl)sc23)nc1 (racemic) [Compound 69] | < 50 nM | 99.7% | 
35 | C[C@H]1C[C@@]2(C[C@@H](c3cnc(-c4ccccc4)o3)N1)OCCc1cc(Cl)sc12 (racemic) [Compound 70] | < 50 nM | 99.3% | 
36 | C[C@H]1C[C@@]2(C[C@@H](c3ccc(C(=O)NC4CC4)cc3)N1)OCCc1cc(Cl)sc12 (racemic) [Compound 71] | < 50 nM | 100% | 
